What all share (assay): NCI-60 cell line screen, 48 h
The test system of assay [1] is EKVX NSCLC.
Assay [2] has as its system IGROV1 ovarian.
Assay [3] has as its system M14 melanoma.
The subject of assay [4] is MOLT-4 leukemia.
The subject of assay [5] is NCI-H460 lung.
Assay [6] has as its system SK-MEL-2 melanoma.
The subject of assay [7] is SNB-75 CNS.
The subject of assay [8] is UACC-257 melanoma.
Assay [9] concerns U251 CNS.
Assay [10] concerns A498 renal.

Values joined by “and” are separate entries in the source; they are usually repeats but may differ in a detail not shown here. Identical values can stand only once.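 The compound was tested at five concentrations on cells cultured in 96-well plates, with a 48-hour exposure period. At the GI50, growth is halved. Definition used: TGI = concentration required for complete inhibition of growth.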

`COc1cc(CC2C(=O)OCC2[C@@H](OC(C)=O)c2ccc3c(c2)OCO3)c(Br)c(OC)c1OC` (stereo partly drawn): the TGI in [1], in assay [2], in assay [3], in assay [4], in assay [5] and in assay [6] was more than 100 µM in each case. The TGI in assay [7] and in assay [8] was more than 100 µM throughout.

As to `COC1C(C)OC(OC2CC(C)(O)Cc3cc4c(c(O)c32)C(=O)c2c(O)cc3c(c2C4=O)OC2OC3(C)C(O)C(N(C)C)C2O)C(OC)C1(C)OC` (stereo not drawn), the TGI is 1.21 µM and 0.304 µM in assay [1]; 3.47 µM and 5.05 µM in assay [2]; 1.86 µM and 0.233 µM in assay [5]; 0.137 µM and 0.0386 µM in [6]. Also, the GI50 was 0.141 µM in [3]; 0.0366 µM and 0.02 µM in assay [4]; 0.0303 µM and 0.0155 µM in assay [5]; 0.0303 µM in assay [6]; 0.00361 µM and 0.0315 µM in assay [7]; 0.0459 µM and 0.016 µM in assay [9]. In [8], the GI50 is 0.0784 µM and 0.0388 µM.

For `COc1cc2oc(-c3ccc(O)cc3)cc(=O)c2c(OC)c1O`, the TGI in [1], in [2], in assay [3], in assay [4], in [5] and in [6] was more than 100 µM in each case. Moreover, the TGI in [7] is 55.1 µM; in assay [9] it was more than 100 µM; in [8], more than 100 µM.

As for `O=Cc1cn(S(=O)(=O)c2ccccc2)c2ccccc12`, the TGI was more than 100 µM in assay [10]; more than 100 µM in assay [1]; more than 100 µM in [2]; more than 100 µM in [3]; 53.1 µM in assay [4]; more than 100 µM in assay [5]. The TGI in assay [7], in assay [9] and in [8] was more than 100 µM in each case.

`CN1c2ccccc2S(=O)(=O)n2c(COc3ccccc3)nnc21`: the TGI in [10], in [1], in [2], in assay [3], in assay [4] and in [5] was more than 100 µM throughout. Further, the TGI in [6], in [9] and in [8] was more than 100 µM in each case.

Consider `CN(CC1NCCCC1O)C12CC3CC(CC(C3)C1)C2` (stereo not drawn), for which the TGI in assay [10], in assay [1], in assay [2], in assay [3], in assay [4] and in assay [5] was more than 100 µM in each case. Also, the TGI in assay [9] and in [8] was more than 100 µM in each case.

With `C=CCCCC(O)c1ccc(C(O)c2cnc3ccccc3c2)o1` (stereo not drawn), the GI50 is 19.2 µM in assay [1]; 19.6 µM in assay [3]; 32.1 µM in assay [4]; 26.9 µM in [5]; 34.1 µM in [6]; 99.2 µM in [7]. For the same compound, the results for the GI50 in assay [9] and in assay [8] were 29.9 µM and 18.8 µM, respectively. For the same compound, the TGI is more than 100 µM in [1]; 41.3 µM in assay [3]; 82 µM in assay [4]; more than 100 µM in [5]; more than 100 µM in assay [6]; more than 100 µM in assay [7]. The TGI in [9] is more than 100 µM; in assay [8], 61.4 µM.

`COC(=O)c1cc2c(nc1C)-c1ccccc1OS2(=O)=O`: the TGI in [10], in assay [1], in assay [2], in assay [3], in [4] and in assay [5] was more than 100 µM in each case. The TGI in [7] was 35.3 µM; in [9] it was more than 100 µM; in assay [8] it was more than 100 µM.

With `C=C1CCC2(C(C)=O)COC1(C)O2` (stereo not drawn), the TGI in assay [1], in [2], in [3], in [4], in assay [5] and in assay [7] was more than 100 µM in each case. For the same compound, the TGI in assay [9] and in [8] was more than 100 µM throughout.

`Nc1nc(-c2ccc3ccccc3c2)cc(-c2cc(-c3ccc4ccccc4c3)nc(N)n2)n1`: the TGI in assay [10], in assay [1], in [2], in [3], in assay [4] and in assay [5] was more than 100 µM each time. For the same compound, the TGI in assay [6], in assay [9] and in assay [8] was more than 100 µM in each case.

Consider `O=c1[nH]c(-c2ccc([N+](=O)[O-])cc2)nc2ccc(Cl)cc12`, for which the TGI in assay [1], in assay [2], in [4], in assay [6], in assay [7] and in assay [9] was more than 100 µM throughout. The compound also registered a TGI in assay [8] of more than 100 µM.

Consider `Cc1ccnc(NC(c2ccccc2)c2ccc3cccnc3c2O)c1` (stereo not drawn), for which the GI50 was 2.08 µM in assay [10]; 2.64 µM in [1]; 2.33 µM in assay [2]; 3.09 µM in assay [3]; 2.53 µM in [4]; 2.16 µM in [5]. Also, the GI50 was 21.1 µM in assay [7], 2.85 µM in assay [9] and 2.62 µM in [8]. Moreover, the TGI in assay [10] was 9.55 µM; in [1], 15.8 µM; in assay [2], 23.3 µM; in [3] it was 29.2 µM; in [4], more than 100 µM; in [5] it was 6.34 µM. Further, the TGI in assay [7] is more than 100 µM; in assay [9], 12.7 µM; in assay [8] it was 9.9 µM.

Turning to `CCOC(=O)CP(=S)(S)c1ccccc1` (stereo not drawn), the TGI in assay [10], in assay [1], in assay [4], in assay [5], in assay [6] and in [9] was more than 100 µM throughout. This compound came in with a TGI in [8] of more than 100 µM.

Source of the values: PubChem BioAssay (NCI).
